Laboratory results taken from patent publication US8530172B2, “Methods and materials for assessing enzyme-nucleic acid complexes” (Mayo Foundation for Medical Education and Research, priority 2010, dated 2013).

Tests used:
[1] = target: T1, topo I-DNA covalent complexes (Homo sapiens, UniProt P11387); experiment: Band depletion assay, A549 cells (SDS-PAGE immunoblot and slot blot); assay type: cell-based; conditions: increasing TPT concentrations up to 100 μM, 60 minutes
T1 construct: separate topo I-DNA covalent complexes from free topo I in A549 cell lysates; endogenous in cells; host or cells: A549
T1 sequence (P11387 1-765): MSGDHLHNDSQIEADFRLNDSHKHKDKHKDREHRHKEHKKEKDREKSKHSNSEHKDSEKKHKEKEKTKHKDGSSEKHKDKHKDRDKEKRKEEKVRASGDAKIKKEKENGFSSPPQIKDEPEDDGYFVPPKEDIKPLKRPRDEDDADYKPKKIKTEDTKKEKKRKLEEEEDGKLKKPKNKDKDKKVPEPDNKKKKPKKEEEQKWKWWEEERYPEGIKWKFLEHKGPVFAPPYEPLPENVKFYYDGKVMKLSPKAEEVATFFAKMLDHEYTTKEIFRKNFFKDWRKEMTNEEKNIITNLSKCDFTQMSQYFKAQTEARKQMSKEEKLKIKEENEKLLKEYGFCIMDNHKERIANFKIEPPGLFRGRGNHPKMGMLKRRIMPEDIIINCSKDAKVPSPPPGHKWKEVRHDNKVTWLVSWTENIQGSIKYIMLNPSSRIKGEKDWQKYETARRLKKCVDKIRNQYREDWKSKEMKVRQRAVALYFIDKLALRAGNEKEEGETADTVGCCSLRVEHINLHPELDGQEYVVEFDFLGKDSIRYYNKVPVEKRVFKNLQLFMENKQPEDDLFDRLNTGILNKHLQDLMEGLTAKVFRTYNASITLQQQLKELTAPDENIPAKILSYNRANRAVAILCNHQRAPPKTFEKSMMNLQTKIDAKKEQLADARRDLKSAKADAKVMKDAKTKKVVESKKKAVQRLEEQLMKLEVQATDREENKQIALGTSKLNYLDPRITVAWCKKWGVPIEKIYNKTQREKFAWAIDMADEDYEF
Description: Band depletion assays were performed as described elsewhere (Kaufmann and […], Methods Mol. Biol., 94:253-268 (1999)). A549 cells grown in 100 mm culture dishes to 40-60% confluence were treated with increasing concentrations of TPT in medium B for 60 minutes. After treatment, cells were immediately solubilized in 6 M guanidine hydrochloride containing 250 mM Tris-HCl (pH 8.5 at 20° C.), 10 mM EDTA, 1% (v/v) 2-mercaptoethanol, and 1 mM freshly added phenylmethylsulfonyl fluoride. After preparation, for electrophoresis as described elsewhere (Kaufmann et al., Blood, 89:2098-2104 (1997), aliquots containing […] of protein (determined by the bicinchoninic acid method (Smith et al., Anal. Biochem., 150:76-85 (1985)) were either slot blotted for immunoblotting with α-TopoI cc antibody or separated on SDS-polyacrylamide gels, eletrophoretically transferred to nitrocellulose, and probed with C-21 anti-Topo I or, as a loading control anti-Hsp90 mouse (obtained from D. O. Toft; Mayo Clinic; Rochester, Minn.).

[2] = target: T1, topo I-DNA covalent complexes; experiment: In vivo complexing of enzyme (ICE) assay with immunoblotting, A549 cells; assay type: cell-based; conditions: 10 μM drug, 60 minutes
Description: ICE assays were performed as described elsewhere (Subramanian et al., ICE Bioassay; DNA Topoisomerase Protocols: Volume II: Enzymology and Drugs, 2001, pp 137-147; and Gálvez-Peralta et al., Bioorganic & Medicinal Chemistry Letters, 19:4459-4462 (2009)). Briefly, A549 cells grown to 40-60% confluence in 100 mm tissue culture dishes were treated for 60 minutes with 0.1% (v/v) DMSO, 10 μM TPT, or 10 μM etoposide in serum-free RPMI containing 10 mM HEPES, pH 7.4 (medium B). At the end of the incubation, the medium was aspirated, and the cells were rapidly lysed in 1 mL lysis buffer consisting of 1% (w/v) sarkosyl, 10 mM Tris-HCl (pH 8.0 at 20-22° C.) and 1 mM EDTA. Lysate was layered on a cesium chloride gradient and ultracentrifuged at 125,000 g for 21 hours at 20° C. After centrifuge tubes were perforated at the bottom with a 23-gauge needle, 0.5 mL fractions were collected, assayed for the presence of DNA (detectable in fractions 1-4), and slot-blotted onto nitrocellulose membranes. Membranes were then blocked in 5% (w/v) milk in […] NaCl containing 10 mM Tris-HCl (pH 7.4 at 20-22° C.) for 2 hours and incubated in either C-21 anti-topo I IgM antibody (obtained from Y.-C. Cheng; Yale University; New Haven, Conn.) or the α-TopoI cc antibody (diluted to 1 μg/mL in blocking buffer). Western blotting was performed as described elsewhere (Kaufmann, Anal. Biochem., 296:283-286 (2001)).

[3] = target: T1, topo I-DNA covalent complexes; experiment: Immunofluorescence (confocal microscopy) in A549 cells; assay type: cell-based
Description: Immunofluorescence studies in A549 cells were performed as described elsewhere (Segovis et al., J. Immunol., 182:6933-6942 (2009)) with several modifications. After cells grown on nitric acid-etched coverslips were treated for 1 hour with TPT in medium B, coverslips were fixed in 2% (w/v) paraformaldehyde in calcium- and magnesium-free Dulbecco's phosphate buffered saline (PBS) for 10 minutes at room temperature, washed with PBS, and permeabilized with 0.25% (v/v) Triton X-100 in PBS for 5 minutes. To denature DNA-protein crosslinks, the coverslips were incubated in 1% SDS for 5 minutes (Brown et al., Histochem. Cell Biol., 105:261-267 (1996)), washed three times with PBS, and incubated in a blocking buffer consisting of PBS, 1% (v/v) glycerol, 0.1% glycerol from cold water fish, 5% (v/v) normal goat serum, 0.1% (w/v) BSA, and 0.4% (w/v) sodium azide. Coverslips were incubated overnight in primary antibody, followed by staining with Alexa Fluor 488-, 568-, or 647-conjugated secondary antibody (Invitrogen) diluted at a ratio of 1:1000. α-TopoI cc antibody was used at 1.2 μg/mL, and α-Topo I human IgG (Topogen; Port Orange, Fla.) was used at 1:1000. […] Quantitation and image processing were performed using the Zeiss Zen software package and Adobe Photoshop CS3.

[4] = target: T2, topo I-DNA covalent complexes (Mus musculus, UniProt Q04750); experiment: Flow cytometry, wild-type P388 cells; assay type: cell-based; conditions: 2 μM TPT
T2 construct: endogenous in cells; host or cells: P388 (wild type)
T2 sequence (Q04750 1-767): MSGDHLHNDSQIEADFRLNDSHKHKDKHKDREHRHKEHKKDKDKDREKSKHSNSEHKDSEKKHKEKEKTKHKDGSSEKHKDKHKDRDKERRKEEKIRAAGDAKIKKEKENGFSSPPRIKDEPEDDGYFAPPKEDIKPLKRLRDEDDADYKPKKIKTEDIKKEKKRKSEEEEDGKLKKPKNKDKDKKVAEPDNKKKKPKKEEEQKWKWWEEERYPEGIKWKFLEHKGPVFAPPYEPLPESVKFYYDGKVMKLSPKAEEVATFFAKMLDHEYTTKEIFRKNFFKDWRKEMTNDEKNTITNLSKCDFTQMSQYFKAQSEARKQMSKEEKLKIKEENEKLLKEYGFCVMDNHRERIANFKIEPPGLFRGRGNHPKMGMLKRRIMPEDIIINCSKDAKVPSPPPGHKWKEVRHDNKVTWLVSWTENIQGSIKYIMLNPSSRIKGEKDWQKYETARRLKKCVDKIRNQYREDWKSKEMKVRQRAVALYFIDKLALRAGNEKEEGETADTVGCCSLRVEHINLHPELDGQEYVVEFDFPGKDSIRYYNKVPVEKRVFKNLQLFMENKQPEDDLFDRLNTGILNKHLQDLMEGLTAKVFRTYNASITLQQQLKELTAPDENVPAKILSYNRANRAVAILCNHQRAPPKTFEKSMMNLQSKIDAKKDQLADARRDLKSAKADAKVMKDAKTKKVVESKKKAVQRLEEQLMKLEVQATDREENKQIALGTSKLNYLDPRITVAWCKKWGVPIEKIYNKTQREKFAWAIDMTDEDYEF
Description: (§1) A549 and K562 cells were stained using a modified protocol of a protocol described elsewhere (Muslimovic et al., Nat. Protoc., 3:1187-1193 (2008)). After 10^6 cells were treated for 1 hour with TPT in medium B, samples were centrifuged at 300 g for 5 minutes. Cells were then partially lysed for 1 minute in 100 μL extraction buffer, which consisted of 25 mM Tris-HCl (pH 7.5 at 20-22° C.), 1% (w/v) Triton X-100, 1 mM EDTA, 0.01% (w/v) BSA, and 0.2% (w/v) paraformaldehyde then fixed for 10 minutes at 20-22° C. by addition of 1 mL 2% (w/v) paraformaldehyde in PBS. Nuclei were pelleted and incubated for 60 minutes in 100 μL blocking buffer with primary antibody (1 μg/mL for A549 and P388 cells; and 5 μg/mL for K562 cells). Nuclei were washed by addition of 2 mL PBS, pelleted, and incubated for 30 minutes in 100 μL blocking buffer with 1 μg/mL Alexa Fluor 647-conjugated goat anti-mouse IgG (Invitrogen). Nuclei were washed by addition of 2 mL PBS, pelleted, and immediately analyzed on a FACSCanto II flow cytometer (BD Biosciences; San Jose, Calif.) on the APC channel (excitation: 633 nm; emission: 660/20 nm).

[5] = test system: topo I-DNA covalent complexes; experiment: Flow cytometry, P388/CPT cells (lack detectable topo I); assay type: cell-based, mouse; conditions: 2 μM TPT
Description: as §1

α-TopoI cc staining intensity (average number of foci per cell or maximal mean fluorescence) ([3]; TPT 1 hour)	shift in α-TopoI cc staining intensity [4]	SMILES	topo I-DNA covalent complex signal (slot blot probed with α-TopoI cc) [1]	total topo I signal at 100 kDa (SDS-PAGE, immunoblot) [1]	topo I-DNA covalent complexes in DNA fractions after drug exposure (α-TopoI cc blot) [2]	non-nucleolar staining of topo I-DNA complexes (double staining) ([3]; TPT versus untreated)	shift in α-TopoI cc staining intensity [5]
dose-dependent increase	rightward shift was detectable	CC[C@@]1(O)C(=O)OCc2c1cc1n(c2=O)Cc2cc3c(CN(C)C)c(O)ccc3nc2-1 [TPT, Topotecan]	corresponding increase in signal for topo I-DNA covalent complexes	graduated decrease in the topo I signal at 100 kDa	detected topo I that co-migrates with DNA	dramatic increase in non-nucleolar staining of topo I-DNA complexes	this shift was not observed
		COc1cc([C@@H]2c3cc4c(cc3[C@@H](O[C@@H]3O[C@@H]5CO[C@@H](C)O[C@H]5[C@H](O)[C@H]3O)[C@H]3COC(=O)[C@H]23)OCO4)cc(OC)c1O [etoposide]			failed to detect		
